From ChEMBL document CHEMBL3046100, “Synthesis and anti-congestive heart failure activity of novel levosimendan analogues” (2011)

How the values were obtained:
Assay type in all cases: functional, Artery
Rattus norvegicus [1] = assay: Anticongestive heart failure activity in Rattus norvegicus (rat) assessed as blood pressure at 50 mg/kg, intraduodenal measured at 10 min by tracheal intubation method (reference value: 95 +/- 3 mmHg)
Rattus norvegicus [2] = assay: Anticongestive heart failure activity in Rattus norvegicus (rat) assessed as blood pressure at 50 mg/kg, intraduodenal measured at 25 min by tracheal intubation method (reference value: 79 +/- 4 mmHg)
Rattus norvegicus [3] = assay: Anticongestive heart failure activity in Rattus norvegicus (rat) assessed as blood pressure at 50 mg/kg, intraduodenal measured at 30 min by tracheal intubation method (reference value: 88 +/- 3 mmHg)
Rattus norvegicus [4] = assay: Anticongestive heart failure activity in Rattus norvegicus (rat) assessed as blood pressure at 50 mg/kg, intraduodenal measured at 20 min by tracheal intubation method (reference value: 81 +/- 4 mmHg)
Rattus norvegicus [5] = assay: Anticongestive heart failure activity in Rattus norvegicus (rat) assessed as blood pressure at 50 mg/kg, intraduodenal measured at 15 min by tracheal intubation method (reference value: 86 +/- 3 mmHg)
Rattus norvegicus [6] = assay: Anticongestive heart failure activity in Rattus norvegicus (rat) assessed as blood pressure at 50 mg/kg, intraduodenal measured at 5 min by tracheal intubation method (reference value: 97 +/- 3 mmHg)

SMILES	Activity (Rattus norvegicus [1])	Activity (Rattus norvegicus [2])	Activity (Rattus norvegicus [3])	Activity (Rattus norvegicus [4])	Activity (Rattus norvegicus [5])	Activity (Rattus norvegicus [6])
C[C@@H]1CC(=O)NN=C1c1ccc(/N=C/c2cccc([N+](=O)[O-])c2)cc1	71 mmHg	67 mmHg	67 mmHg	68 mmHg	69 mmHg	77 mmHg
C[C@@H]1CC(=O)NN=C1c1ccc(NN=C(C#N)C#N)cc1 [LEVOSIMENDAN]	39 mmHg	34 mmHg	31 mmHg	36 mmHg	34 mmHg	51 mmHg
C[C@@H]1CC(=O)NN=C1c1ccc(/N=C/c2ccc(O)c(O)c2)cc1	63 mmHg	53 mmHg	53 mmHg	53 mmHg	53 mmHg	77 mmHg
C[C@@H]1CC(=O)NN=C1c1ccc(/N=C/c2ccc(O)cc2)cc1	44 mmHg	29 mmHg	30 mmHg	30 mmHg	32 mmHg	80 mmHg
C[C@@H]1CC(=O)NN=C1c1ccc(/N=C/c2ccc([N+](=O)[O-])cc2)cc1	35 mmHg	28 mmHg	29 mmHg	29 mmHg	31 mmHg	56 mmHg
C[C@@H]1CC(=O)NN=C1c1ccc(/N=C/c2ccccn2)cc1	39 mmHg	29 mmHg	29 mmHg	30 mmHg	30 mmHg	52 mmHg
COc1cc(/C=N/c2ccc(C3=NNC(=O)C[C@H]3C)cc2)cc(OC)c1OC	46 mmHg	27 mmHg	27 mmHg	28 mmHg	37 mmHg	77 mmHg
C[C@@H]1CC(=O)NN=C1c1ccc(/N=C/c2ccccc2O)cc1	28 mmHg	26 mmHg	26 mmHg	26 mmHg	28 mmHg	55 mmHg
C[C@@H]1CC(=O)NN=C1c1ccc(/N=C/c2ccccc2Cl)cc1	68 mmHg	34 mmHg	32 mmHg	34 mmHg	55 mmHg	81 mmHg
C[C@@H]1CC(=O)NN=C1c1ccc(/N=C/c2ccco2)cc1	30 mmHg	23 mmHg	24 mmHg	25 mmHg	25 mmHg	45 mmHg
C[C@@H]1CC(=O)NN=C1c1ccc(/N=C/c2ccc(Cl)c(Cl)c2)cc1	33 mmHg	25 mmHg	25 mmHg	24 mmHg	25 mmHg	52 mmHg
